Laboratory results published in patent US20260327191A1, “GSK3a INHIBITORS AND METHODS OF USE THEREOF” (Blueprint Medicines Corporation, priority 2023, published 2026).
pIC50: −log10 of the molar value.

Columns and labels:
GSK3B [1] = molecular target: T1, GSK3B (Homo sapiens, UniProt P49841); assay: In vitro enzymatic activity assay, GSK3β; format: biochemical; set-up: Full length human GSK3α or GSK3B expressed as N-terminal GST fusion proteins; GST (N); purchased Carna Biosciences (Japan); host or cells: baculovirus host; settings: 1.0 mM ATP, 1.0 μM peptide substrate, 120 min, 25° C, read-out: Enzyme GSK3β (IC50)
Method: (§1) Full length human GSK3α or GSK3B expressed as N-terminal GST fusion proteins in baculovirus host were purchased from Carna Biosciences (Japan). The kinase was pre-incubated with ATP (adenosine-5′-triphosphate) for 45 min, then incubated with tested compounds for another 45 min in assay buffer that contains 100 mM HEPES (N-2-hydroxyethylpiperazine-N′-2-ethanesulfonic acid), pH 7.5, 10 mM MgCl2, 1.0 mM DTT, and 0.015% Briji-35. […] Percent inhibition was plotted against compound concentration to generate 10-point dose response curve with 3-fold serial dilution starting from 10 μM. IC50 value was determined from the 4-parameter logistic curve fitting.

GSK3B [2] = molecular target: T1, GSK3B; assay: NanoBRET cellular target engagement assay, Nanoluc-GSK3B in HEK293 cells; format: cell-based; set-up: expressed in transfected cells; settings: NanoBRET GSK3β IC50, HEK293 cells, tracer K-8, 2 hours, 37° C
Method: (§2) In the assay, HEK293 cells stably expressing either Nanoluc-GSK3A or Nanoluc-GSK3B were maintained in culture media and seeded, using a multidrop dispenser, at a density of 5×10^3 cells per well in 384-well white plates with 100 ng/ml doxycycline (Sigma) overnight.
(§3) Compound was first diluted in DMSO to generate a 9-point serial dilution then diluted to 10× final concentration in Opti-MEM™ (Gibco). After overnight incubation, cell medium was aspirated from the seeded cells using a microplate automatic washer, then 27 μL of pre-warmed Opti-MEM™ with kinase tracer (K-8) and 3 μL of Opti-MEM™ diluted DMSO or compounds were added per well. Plates were protected from light, mixed in an orbital shaker for 3 min at RT and incubated at 37° C., 5% CO2 in a humidified incubator for 2 hours. After acclimation at RT for 15 min, 15 μL of 3× complete NanoBRET™ Nano-Glo Substrate/Inhibitor (Promega) was added per well. Plates were mixed in an orbital shaker for 3 min at RT and incubated for an additional 30 min. Donor emission at 460 nm and acceptor emission at 647 nm were measured in EnVision multilabel plate reader (Perkin Elmer).

GSK3A = molecular target: T2, GSK3A (Homo sapiens, UniProt P49840); assay: NanoBRET cellular target engagement assay, Nanoluc-GSK3A in HEK293 cells; format: cell-based; settings: NanoBRET GSK3α IC50, HEK293 cells, tracer K-8, 2 hours, 37° C
T2 construct: expressed in transfected cells
Method: as §2, §3

human GSK3α = molecular target: T3, human GSK3α (Homo sapiens, UniProt P49840); assay: In vitro enzymatic activity assay, GSK3α; format: biochemical; settings: 1.0 mM ATP, 1.0 μM peptide substrate, 120 min, 25° C, read-out: Enzyme GSK3α (IC50)
T3 construct: Full length human GSK3α or GSK3B expressed as N-terminal GST fusion proteins; GST (N); purchased Carna Biosciences (Japan); host or cells: baculovirus host
Method: as §1

T1 sequence (P49841 whole entry, the tested form may be a part): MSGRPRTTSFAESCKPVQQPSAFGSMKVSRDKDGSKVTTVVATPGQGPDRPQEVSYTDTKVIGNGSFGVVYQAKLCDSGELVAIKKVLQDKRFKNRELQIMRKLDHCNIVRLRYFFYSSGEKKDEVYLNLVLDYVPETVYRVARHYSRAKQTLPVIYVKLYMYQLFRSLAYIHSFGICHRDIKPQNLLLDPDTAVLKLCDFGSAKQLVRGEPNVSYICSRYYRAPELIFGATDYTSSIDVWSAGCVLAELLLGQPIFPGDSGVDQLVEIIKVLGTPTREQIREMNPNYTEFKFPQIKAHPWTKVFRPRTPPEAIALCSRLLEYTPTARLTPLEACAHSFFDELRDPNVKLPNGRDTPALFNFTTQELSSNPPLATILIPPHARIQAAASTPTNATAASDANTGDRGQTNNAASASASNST
T2 sequence (P49840 whole entry): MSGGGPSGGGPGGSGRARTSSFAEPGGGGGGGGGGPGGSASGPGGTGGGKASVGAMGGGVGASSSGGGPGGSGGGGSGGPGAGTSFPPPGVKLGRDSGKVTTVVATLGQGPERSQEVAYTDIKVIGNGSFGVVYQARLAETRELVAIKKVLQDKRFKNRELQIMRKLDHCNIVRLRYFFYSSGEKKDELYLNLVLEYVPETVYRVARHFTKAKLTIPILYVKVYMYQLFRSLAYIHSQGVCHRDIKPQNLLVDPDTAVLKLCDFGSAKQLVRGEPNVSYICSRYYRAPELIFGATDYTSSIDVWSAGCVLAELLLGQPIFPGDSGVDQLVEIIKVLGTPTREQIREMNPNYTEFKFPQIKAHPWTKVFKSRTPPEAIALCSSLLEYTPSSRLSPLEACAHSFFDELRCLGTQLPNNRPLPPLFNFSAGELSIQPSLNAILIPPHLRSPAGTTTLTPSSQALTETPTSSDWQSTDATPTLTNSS
T3 sequence (P49840 whole entry, the tested form may be a part): as the sequence (P49840 whole entry) above

pIC50 (GSK3B [1]) | pIC50 (GSK3B [2]) | pIC50 (GSK3A) | pIC50 (human GSK3α) | SMILES
6.77 | 6.61 | 8.44 | 8.44 | COC[C@@H](N)c1cccc(NC(=O)c2c(N)ncn(-c3c(C)cc(OC)cc3Cl)c2=O)c1 (atropisomer, axis not shown) [Example 1, (S)-4-amino-N-(3-(1-amino-2-methoxyethyl)phenyl)-1-((S)-2-chloro-4-methoxy-6-methylphenyl)-6-oxo-1,6-dihydropyrimidine-5-carboxamide]
6.53 | 6.59 | 8.54 | 8.32 | COC[C@@H](N)c1cccc(NC(=O)c2c(N)ncn(-c3c(C)cc(C#N)cc3Cl)c2=O)c1 (atropisomer, axis not shown) [Example 42, (S)-4-amino-N-(3-(1-amino-2-methoxyethyl)phenyl)-1-((S)-2-chloro-4-cyano-6-methylphenyl)-6-oxo-1,6-dihydropyrimidine-5-carboxamide]
6.42 | 6.45 | 8.32 | 8.20 | CCOc1cc(C)c(-n2cnc(N)c(C(=O)Nc3cccc([C@@H](C)NC)c3)c2=O)c(Cl)c1 (atropisomer, axis not shown) [Example 71, (R)-4-amino-1-((S)-2-chloro-4-ethoxy-6-methylphenyl)-N-(3-(1-(methylamino)ethyl)phenyl)-6-oxo-1,6-dihydropyrimidine-5-carboxamide]
6.73 | 6.96 | 8.85 | 8.43 | [2H]C([2H])([2H])NC(C)c1cncc(NC(=O)c2c(N)ncn(-c3c(C)cc(OC)cc3Cl)c2=O)c1 (single isomer, unassigned) [Example 4, (R)-4-amino-1-((S)-2-chloro-4-methoxy-6-methylphenyl)-N-(5-(1-((methyl-d3)amino)ethyl)pyridin-3-yl)-6-oxo-1,6-dihydropyrimidine-5-carboxamide or (S)-4-amino-1-((S)-2-chloro-4-methoxy-6-methylphenyl)-N-(5-(1-((methyl-d3)amino)ethyl)pyridin-3-yl)-6-oxo-1,6-dihydropyrimidine-5-carboxamide]
6.18 | 6.37 | 8.13 | 8.02 | CNC(C)c1cncc(NC(=O)c2c(N)ncn(-c3c(Cl)cc(C#N)cc3Cl)c2=O)c1 (single isomer, unassigned) [Example 9, (R)-4-amino-1-(2,6-dichloro-4-cyanophenyl)-N-(5-(1-(methylamino)ethyl)pyridin-3-yl)-6-oxo-1,6-dihydropyrimidine-5-carboxamide or (S)-4-amino-1-(2,6-dichloro-4-cyanophenyl)-N-(5-(1-(methylamino)ethyl)pyridin-3-yl)-6-oxo-1,6-dihydropyrimidine-5-carboxamide]

More lines, now with the values behind:

SMILES | pIC50 (GSK3B [1]) | pIC50 (GSK3B [2]) | pIC50 (GSK3A) | pIC50 (human GSK3α)
CN[C@H](C)c1cccc(NC(=O)c2c(N)ncn(-c3c(C)cc(OC)cc3Cl)c2=O)c1 (atropisomer, axis not shown) [Example 2, (R)-4-amino-1-((S)-2-chloro-4-methoxy-6-methylphenyl)-N-(3-(1-(methylamino)ethyl)phenyl)-6-oxo-1,6-dihydropyrimidine-5-carboxamide] | 6.40 | 6.48 | 8.31 | 8.15
CN[C@H](C)c1cccc(NC(=O)c2c(N)ncn(-c3c(C)cccc3Cl)c2=O)c1 (atropisomer, axis not shown) [Example 3, (R)-4-amino-1-((S)-2-chloro-6-methylphenyl)-N-(3-(1-(methylamino)ethyl)phenyl)-6-oxo-1,6-dihydropyrimidine-5-carboxamide] | 6.46 | 6.40 | 8.30 | 8.18
COC[C@@H](N)c1cccc(NC(=O)c2c(N)ncn(-c3c(Cl)cccc3C(F)F)c2=O)c1 (atropisomer, axis not shown) [Example 7, (S)-4-amino-N-(3-(1-amino-2-methoxyethyl)phenyl)-1-((S)-2-chloro-6-(difluoromethyl)phenyl)-6-oxo-1,6-dihydropyrimidine-5-carboxamide] | 6.47 | 6.32 | 8.15 | 8.12
Cc1cc(C#N)cc(Cl)c1-n1cnc(N)c(C(=O)Nc2cccc([C@@H](C)N)c2)c1=O (atropisomer, axis not shown) [Example 8, (R)-4-amino-N-(3-(1-aminoethyl)phenyl)-1-((S)-2-chloro-4-cyano-6-methylphenyl)-6-oxo-1,6-dihydropyrimidine-5-carboxamide] | 6.69 | 6.77 | 8.48 | 8.32
CCNCc1cccc(NC(=O)c2c(N)ncn(-c3c(C)cc(C(F)F)cc3Cl)c2=O)c1 (atropisomer, axis not shown) [Example 11, 4-amino-1-((S)-2-chloro-4-(difluoromethyl)-6-methylphenyl)-N-(3-((ethylamino)methyl)phenyl)-6-oxo-1,6-dihydropyrimidine-5-carboxamide] | 6.19 | 6.60 | 8.39 | 7.84
CN[C@H](C)c1cccc(NC(=O)c2c(N)ncn(-c3c(C)cc(C(F)(F)F)cc3Cl)c2=O)c1 (atropisomer, axis not shown) [Example 33, 4-amino-1-((S)-2-chloro-6-methyl-4-(trifluoromethyl)phenyl)-N-(3-((R)-1-(methylamino)ethyl)phenyl)-6-oxo-1,6-dihydropyrimidine-5-carboxamide] | 6.46 | 6.34 | 8.08 | 8.19
COc1cc(C)c(-n2cnc(N)c(C(=O)Nc3cccc([C@@H]4CCCN4)c3)c2=O)c(Cl)c1 (atropisomer, axis not shown) [Example 36, (S)-4-amino-1-((S)-2-chloro-4-methoxy-6-methylphenyl)-6-oxo-N-(3-(pyrrolidin-2-yl)phenyl)-1,6-dihydropyrimidine-5-carboxamide] | 6.52 | 6.54 | 8.36 | 8.14
CCOc1cc(C)c(-n2cnc(N)c(C(=O)Nc3cccc([C@H](N)COC)c3)c2=O)c(Cl)c1 (atropisomer, axis not shown) [Example 72, (S)-4-amino-N-(3-(1-amino-2-methoxyethyl)phenyl)-1-((S)-2-chloro-4-ethoxy-6-methylphenyl)-6-oxo-1,6-dihydropyrimidine-5-carboxamide] | 6.33 | 6.42 | 8.29 | 8.12
CNC(C)c1cncc(NC(=O)c2c(N)ncn(-c3c(Cl)cc(Cl)cc3Cl)c2=O)c1 (single isomer, unassigned) [Example 12, (R)-4-amino-N-(5-(1-(methylamino)ethyl)pyridin-3-yl)-6-oxo-1-(2,4,6-trichlorophenyl)-1,6-dihydropyrimidine-5-carboxamide or (S)-4-amino-N-(5-(1-(methylamino)ethyl)pyridin-3-yl)-6-oxo-1-(2,4,6-trichlorophenyl)-1,6-dihydropyrimidine-5-carboxamide] | 6.70 | 6.85 | 8.62 | 8.42
CNC(C)c1cncc(NC(=O)c2c(N)ncn(-c3c(Cl)cc(Cl)cc3Cl)c2=O)c1 (single isomer, unassigned) [Example 13, (S)-4-amino-N-(5-(1-(methylamino)ethyl)pyridin-3-yl)-6-oxo-1-(2,4,6-trichlorophenyl)-1,6-dihydropyrimidine-5-carboxamide or (R)-4-amino-N-(5-(1-(methylamino)ethyl)pyridin-3-yl)-6-oxo-1-(2,4,6-trichlorophenyl)-1,6-dihydropyrimidine-5-carboxamide] | 6.00 | 6.30 | 8.01 | 7.75
Cc1cc(C(F)CF)cc(C)c1-n1cnc(N)c(C(=O)Nc2cncc([C@H]3CCCCN3)c2)c1=O (single isomer, unassigned) [Example 111, 4-amino-1-(4-((R)-1,2-difluoroethyl)-2,6-dimethylphenyl)-6-oxo-N-(5-((R)-piperidin-2-yl)pyridin-3-yl)-1,6-dihydropyrimidine-5-carboxamide or 4-amino-1-(4-((S)-1,2-difluoroethyl)-2,6-dimethylphenyl)-6-oxo-N-(5-((R)-piperidin-2-yl)pyridin-3-yl)-1,6-dihydropyrimidine-5-carboxamide] |  |  | 8.70 | 8.52
